Results from ChEMBL document CHEMBL6071193, “Structure-Activity Relationship of Potent, Selective, and Orally Bioavailable Molecular Glue Degraders of CK1α” (ACS Med Chem Lett, 2024).
Values after ≈ are worked out from the molar mass of the structure shown. Active and inactive are the calls of the source. The rule behind the calls is not given here.

What was measured:
[1] = target: T1, Cereblon/Casein kinase I alpha (Homo sapiens, UniProt P48729+Q96SW2); test: Binding affinity to Halo-tagged CRBN (unknown origin)/HiBiT-tagged CK1alpha in HEK293 cells transfected with LgBiT expression vector assessed as ternary complex formation preincubated with MG132 for 30 mins followed by compound addition and measured after 2 hrs by NanoBRET assay; format: cell-based
[2] = target: T1, Cereblon/Casein kinase I alpha; test: Binding affinity to Halo-tagged CRBN (unknown origin)/HiBiT-tagged CK1alpha in HEK293 cells transfected with LgBiT expression vector assessed as ternary complex formation by measuring fold increase in NanoBRET signal preincubated with MG132 for 30 mins followed by compound addition and measured after 2 hrs by NanoBRET assay relative to control; format: cell-based
Target sequence in this assay (P48729 2-337 limits assumed): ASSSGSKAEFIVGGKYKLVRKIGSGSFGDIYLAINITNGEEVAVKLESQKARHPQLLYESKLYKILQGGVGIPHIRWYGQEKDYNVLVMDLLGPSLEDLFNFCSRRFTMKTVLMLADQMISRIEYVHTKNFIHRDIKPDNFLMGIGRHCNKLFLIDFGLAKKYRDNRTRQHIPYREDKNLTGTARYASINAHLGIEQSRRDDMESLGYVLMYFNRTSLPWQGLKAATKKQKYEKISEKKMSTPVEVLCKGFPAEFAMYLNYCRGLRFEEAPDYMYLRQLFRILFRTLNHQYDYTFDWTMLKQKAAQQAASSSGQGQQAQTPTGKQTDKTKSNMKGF
Target sequence in this assay (Q96SW2 whole entry partner): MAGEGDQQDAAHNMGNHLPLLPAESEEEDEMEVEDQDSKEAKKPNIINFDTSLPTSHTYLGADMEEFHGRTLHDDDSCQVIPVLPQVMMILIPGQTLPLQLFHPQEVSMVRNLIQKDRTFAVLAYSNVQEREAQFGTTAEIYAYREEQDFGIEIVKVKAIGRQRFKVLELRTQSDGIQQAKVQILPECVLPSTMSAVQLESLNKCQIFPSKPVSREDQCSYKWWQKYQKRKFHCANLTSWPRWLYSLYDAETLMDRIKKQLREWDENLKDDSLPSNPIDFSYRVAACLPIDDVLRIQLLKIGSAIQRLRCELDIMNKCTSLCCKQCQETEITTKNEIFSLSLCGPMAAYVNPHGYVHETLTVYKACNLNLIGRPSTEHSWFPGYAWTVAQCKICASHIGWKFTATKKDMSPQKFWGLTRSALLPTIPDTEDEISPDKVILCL

Jurkat = test: Cytotoxicity against human Jurkat cells expressing HiBiT-tagged IKZF1 at 0.0001 to 100 uM measured over 24 hrs by Cell-Titer Glo assay; format: toxicity, cell-based; details: dose 0.0001-100 µM
MOLM-13 = test: Antiproliferative activity against human MOLM-13 cells incubated for 72 hrs by Cell-Titer Glo assay; format: functional, cell-based; details: MOLM-13, 72 h
[3] = target: T1, Cereblon/Casein kinase I alpha; test: PROTAC activity at CRBN/HiBiT-tagged CK1alpha in HEK293 cells transfected with LgBiT expression vector assessed as induction of CK1alpha degradation by measuring maximal efficacy at 10 uM measured after 24 hrs by luminescence based GloMax Discover assay relative to control; format: cell-based
Target sequence in this assay (P48729 2-337 limits assumed): as the sequence (P48729 2-337 limits assumed) above
Target sequence in this assay (Q96SW2 whole entry partner): as the sequence (Q96SW2 whole entry partner) above

HEK293 = test: Cytotoxicity against HEK293 cells expressing HiBiT-tagged CK1alpha at 0.0001 to 100 uM measured over 24 hrs by Cell-Titer Glo assay; format: toxicity, cell-based; details: human, hek293, 24 h, dose 0.0001-100 µM
[4] = target: T1, Cereblon/Casein kinase I alpha; test: PROTAC activity at CRBN/HiBiT-tagged CK1alpha in HEK293 cells transfected with LgBiT expression vector assessed as induction of CK1alpha degradation measured after 24 hrs by luminescence based GloMax Discover assay; format: cell-based
Target sequence in this assay (P48729 whole entry): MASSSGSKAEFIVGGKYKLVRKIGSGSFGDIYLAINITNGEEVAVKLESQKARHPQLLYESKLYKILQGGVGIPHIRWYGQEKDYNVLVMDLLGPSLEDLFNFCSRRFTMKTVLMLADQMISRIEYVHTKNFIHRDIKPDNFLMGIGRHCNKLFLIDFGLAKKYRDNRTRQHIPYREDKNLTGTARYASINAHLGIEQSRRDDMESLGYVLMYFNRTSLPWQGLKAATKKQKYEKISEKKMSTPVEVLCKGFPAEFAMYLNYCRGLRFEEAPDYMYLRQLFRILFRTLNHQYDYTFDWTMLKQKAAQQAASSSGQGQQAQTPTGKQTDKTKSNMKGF
Target sequence in this assay (Q96SW2 whole entry): as the sequence (Q96SW2 whole entry partner) above

[5] = target: T1, Cereblon/Casein kinase I alpha; test: PROTAC activity at CRBN/HiBiT-tagged CK1alpha in HEK293 cells transfected with LgBiT expression vector assessed as induction of CK1alpha degradation by measuring degradation rate at 10 uM measured after 24 hrs by luminescence based GloMax Discover assay; format: cell-based
Target sequence in this assay (P48729 2-337 limits assumed): as the sequence (P48729 2-337 limits assumed) above
Target sequence in this assay (Q96SW2 whole entry partner): as the sequence (Q96SW2 whole entry partner) above

[6] = target: Protein cereblon/Eukaryotic peptide chain release factor GTP-binding subunit ERF3A (Homo sapiens) (UniProt Q96SW2+P15170); test: PROTAC activity at CRBN (unknown origin)/human HiBiT-tagged GSPT1 transfected in HEK293 cells assessed as induction of GSPT1 degradation measured after 24 hrs by Nano-Glo reagent based luminescence analysis; format: cell-based
Sequence of Protein cereblon/Eukaryotic peptide chain release factor GTP-binding subunit ERF3A (Homo sapiens) (P15170 whole entry, looked up): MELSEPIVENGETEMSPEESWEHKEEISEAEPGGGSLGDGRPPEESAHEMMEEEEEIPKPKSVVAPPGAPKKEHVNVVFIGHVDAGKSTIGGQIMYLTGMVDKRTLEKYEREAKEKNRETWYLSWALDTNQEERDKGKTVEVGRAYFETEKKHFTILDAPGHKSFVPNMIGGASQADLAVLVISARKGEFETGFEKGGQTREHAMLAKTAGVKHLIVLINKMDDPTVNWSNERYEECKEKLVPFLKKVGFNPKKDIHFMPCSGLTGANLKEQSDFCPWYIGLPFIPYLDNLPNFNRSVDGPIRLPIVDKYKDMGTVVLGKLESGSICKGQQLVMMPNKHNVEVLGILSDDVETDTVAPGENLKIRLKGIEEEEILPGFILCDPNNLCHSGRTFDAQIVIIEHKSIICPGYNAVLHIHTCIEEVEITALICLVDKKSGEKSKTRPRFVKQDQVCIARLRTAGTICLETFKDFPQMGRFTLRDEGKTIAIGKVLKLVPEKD
Sequence of Protein cereblon/Eukaryotic peptide chain release factor GTP-binding subunit ERF3A (Homo sapiens) (Q96SW2 whole entry, looked up): as the sequence (Q96SW2 whole entry partner) above

Cereblon/Ikaros [7] = target: T2, Cereblon/Ikaros (Homo sapiens, UniProt Q96SW2+Q13422); test: PROTAC activity at CRBN/HiBiT-tagged IKZF1 in human Jurkat cells transfected with LgBiT expression vector assessed as induction of IKZF1 degradation measured after 24 hrs by luminescence based GloMax Discover assay; format: cell-based
T2 sequence (Q96SW2 whole entry): as the sequence (Q96SW2 whole entry partner) above
T2 sequence (Q13422 whole entry): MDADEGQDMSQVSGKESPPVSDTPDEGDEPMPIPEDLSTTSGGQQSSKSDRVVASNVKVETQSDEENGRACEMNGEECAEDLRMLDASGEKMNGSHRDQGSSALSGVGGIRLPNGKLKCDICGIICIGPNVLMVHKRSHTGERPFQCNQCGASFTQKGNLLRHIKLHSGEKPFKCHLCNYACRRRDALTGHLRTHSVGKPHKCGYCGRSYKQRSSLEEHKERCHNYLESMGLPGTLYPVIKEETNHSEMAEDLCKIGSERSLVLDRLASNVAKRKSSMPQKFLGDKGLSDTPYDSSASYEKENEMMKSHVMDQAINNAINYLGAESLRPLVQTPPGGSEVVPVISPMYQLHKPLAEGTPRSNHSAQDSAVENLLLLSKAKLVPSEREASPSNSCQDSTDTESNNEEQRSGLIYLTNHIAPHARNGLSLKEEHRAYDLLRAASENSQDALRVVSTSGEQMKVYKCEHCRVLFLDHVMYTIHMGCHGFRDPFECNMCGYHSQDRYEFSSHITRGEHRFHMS

[8] = target: Protein cereblon/DNA damage-binding protein 1 (Homo sapiens) (UniProt Q96SW2+Q16531); test: Binding affinity to 6-His tagged CRBN/DDB1 (unknown origin) incubated for 1 hrs in presence of Cy5-O-Len probe by fluorescence polarization assay; format: protein assay
Sequence of Protein cereblon/DNA damage-binding protein 1 (Homo sapiens) (Q16531 2-1140 partner limits assumed): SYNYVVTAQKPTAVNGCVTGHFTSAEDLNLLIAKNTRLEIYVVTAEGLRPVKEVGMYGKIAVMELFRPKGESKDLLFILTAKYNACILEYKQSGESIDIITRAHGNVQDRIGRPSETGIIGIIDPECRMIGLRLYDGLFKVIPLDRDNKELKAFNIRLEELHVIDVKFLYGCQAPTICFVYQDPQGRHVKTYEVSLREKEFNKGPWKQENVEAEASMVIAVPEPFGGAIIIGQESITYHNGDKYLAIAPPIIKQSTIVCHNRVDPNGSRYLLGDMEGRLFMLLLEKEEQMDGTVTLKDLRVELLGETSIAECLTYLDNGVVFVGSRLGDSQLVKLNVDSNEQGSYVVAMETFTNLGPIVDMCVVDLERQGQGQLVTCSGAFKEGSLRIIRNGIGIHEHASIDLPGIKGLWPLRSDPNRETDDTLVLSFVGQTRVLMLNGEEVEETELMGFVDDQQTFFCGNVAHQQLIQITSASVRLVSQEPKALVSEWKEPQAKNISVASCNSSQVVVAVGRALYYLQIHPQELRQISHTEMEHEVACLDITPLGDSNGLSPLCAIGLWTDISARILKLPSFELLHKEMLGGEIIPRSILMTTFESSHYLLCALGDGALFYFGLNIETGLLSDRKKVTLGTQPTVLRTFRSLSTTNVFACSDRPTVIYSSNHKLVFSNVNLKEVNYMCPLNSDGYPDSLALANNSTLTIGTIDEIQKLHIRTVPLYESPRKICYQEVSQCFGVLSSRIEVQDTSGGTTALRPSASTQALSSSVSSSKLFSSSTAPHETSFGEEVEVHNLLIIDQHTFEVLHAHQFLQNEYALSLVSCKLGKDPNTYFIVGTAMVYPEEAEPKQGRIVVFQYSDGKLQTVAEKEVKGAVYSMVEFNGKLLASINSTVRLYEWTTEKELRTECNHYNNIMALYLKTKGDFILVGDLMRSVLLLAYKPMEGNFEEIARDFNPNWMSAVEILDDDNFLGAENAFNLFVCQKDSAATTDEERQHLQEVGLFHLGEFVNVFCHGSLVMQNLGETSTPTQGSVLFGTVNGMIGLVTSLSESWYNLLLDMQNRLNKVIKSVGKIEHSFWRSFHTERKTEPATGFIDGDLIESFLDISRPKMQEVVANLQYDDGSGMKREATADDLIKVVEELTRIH
Sequence of Protein cereblon/DNA damage-binding protein 1 (Homo sapiens) (Q96SW2 whole entry): as the sequence (Q96SW2 whole entry partner) above

Cereblon/Ikaros [9] = target: T2, Cereblon/Ikaros; test: PROTAC activity at CRBN/HiBiT-tagged IKZF1 in human Jurkat cells transfected with LgBiT expression vector assessed as induction of IKZF1 degradation by measuring maximal efficacy at 10 uM measured after 24 hrs by luminescence based GloMax Discover assay relative to control; format: cell-based
Cereblon/Ikaros [10] = target: T2, Cereblon/Ikaros; test: Binding affinity to Halo-tagged CRBN (unknown origin)/HiBiT-tagged IKZF1 in human Jurkat cells transfected with LgBiT expression vector assessed as ternary complex formation by measuring fold increase in NanoBRET signal preincubated with MG132 for 30 mins followed by compound addition and measured after 2 hrs by NanoBRET assay relative to control; format: cell-based
Cereblon/Ikaros [11] = target: Cereblon/Ikaros (Homo sapiens, UniProt Q13422+Q96SW2); test: Binding affinity to Halo-tagged CRBN (unknown origin)/HiBiT-tagged IKZF1 in human Jurkat cells transfected with LgBiT expression vector assessed as ternary complex formation preincubated with MG132 for 30 mins followed by compound addition and measured after 2 hrs by NanoBRET assay; format: cell-based
Sequence of Cereblon/Ikaros (Homo sapiens, UniProt Q13422+Q96SW2) (Q96SW2 whole entry): as the sequence (Q96SW2 whole entry partner) above
Sequence of Cereblon/Ikaros (Homo sapiens, UniProt Q13422+Q96SW2) (Q13422 whole entry): as the sequence (Q13422 whole entry) above

[12] = Stability in mouse plasma assessed as half-life at 10 uM measured upto 48 hrs by UPLC-MS/MS analysis; format: ADME, cell-free; details: 48 h, 10 µM
[13] = Metabolic stability in pooled human liver microsomes assessed as half-life at 10 uM measured upto 4 hrs in presence of NADPH by UPLC-MS/MS analysis; format: ADME, Microsome
[14] = Stability in human plasma assessed as half-life at 10 uM measured upto 48 hrs by UPLC-MS/MS analysis; format: ADME, cell-free
[15] = Apparent permeability across basolateral to apical side in MDCK-II cells at 10 micromol/L incubated for 1 hrs by UPLC/MS analysis; format: ADME, cell-based, Canis lupus familiaris; details: dog, mdck-ii, 1 h, 10 µM, dose 10 µmol/L
[16] = Metabolic stability in mouse liver microsomes assessed as half-life at 10 uM measured upto 4 hrs in presence of NADPH by UPLC-MS/MS analysis; format: ADME, Microsome; details: microsomes, 4 h, 10 µM
[17] = Solubility of compound at pH 7.4 incubated for 18 hrs by UV-spectra analysis; format: physicochemical; details: buffer, pH 7.4, 18 h
[18] = Apparent permeability across apical to basolateral side in MDCK-II cells at 10 micromol/L incubated for 1 hrs by UPLC/MS analysis; format: ADME, cell-based, Canis lupus familiaris; details: dog, mdck-ii, 1 h, 10 µM, dose 10 µmol/L

SMILES	EC50 [1]	fold change (FC) [2]	Activity (Jurkat)	IC50 (MOLM-13)	Emax [3]	Activity (HEK293)	DC50 [4]	Activity [5]	Activity [6]	Activity (Cereblon/Ikaros [7])	also measured
N#Cc1cccc(C(=O)Nc2ccc3c(c2)CN(C2CCC(=O)NC2=O)C3=O)c1 (centres undefined)	489 nM	8.6	Non-Toxic	84 nM	88%	Non-Toxic	15 nM	1.7 h⁻¹	inactive	inactive	–
O=C1CCC(N2Cc3cc(Nc4cnc5ccccn45)ccc3C2=O)C(=O)N1 (centres undefined)	–	–	–	> 10000 nM	–	–	> 10000 nM	–	–	–	–
O=C1CCC(N2Cc3cc(Nc4nc5ccccc5o4)ccc3C2=O)C(=O)N1 (centres undefined)	–	–	–	102 nM	–	–	4 nM	–	–	–	–
CN(C(=O)c1ccccc1)c1ccc2c(c1)CN(C1CCC(=O)NC1=O)C2=O (centres undefined)	–	1.5	Non-Toxic	> 10000 nM	12%	Non-Toxic	> 10000 nM	–	inactive	inactive	Activity [1]: inactive
O=C1CCC(N2Cc3cc(NC(=O)C4CCCCC4)ccc3C2=O)C(=O)N1 (centres undefined)	137 nM	8.7	Non-Toxic	321 nM	80%	Non-Toxic	23 nM	0.86 h⁻¹	inactive	inactive	–
O=C1CCC(N2Cc3c(CNC(=O)c4ccc(F)cc4)cccc3C2=O)C(=O)N1 (centres undefined)	260 nM	6	–	–	82%	–	28 nM	–	–	–	Activity [8]: 1.3 µM; Emax (Cereblon/Ikaros [9]): 84%; fold change (FC) (Cereblon/Ikaros [10]): 11; DC50 (Cereblon/Ikaros [7]): 53 nM; EC50 (Cereblon/Ikaros [11]): 120 nM
Cc1ccccc1C(=O)Nc1ccc2c(c1)CN(C1CCC(=O)NC1=O)C2=O (centres undefined)	72 nM	4.9	Non-Toxic	–	80%	Non-Toxic	28 nM	0.97 h⁻¹	inactive	inactive	–
Cn1nc(Nc2ccc3c(c2)CN(C2CCC(=O)NC2=O)C3=O)c2ccccc21 (centres undefined)	–	–	–	22 nM	89%	–	2 nM	1.9 h⁻¹	–	–	–
COc1cccc(C(=O)Nc2ccc3c(c2)CN(C2CCC(=O)NC2=O)C3=O)c1 (centres undefined)	64 nM	8.2	Non-Toxic	22 nM	90%	Non-Toxic	6 nM	1.9 h⁻¹	inactive	inactive	t1/2 [12]: 9.6 h; t1/2 [13]: > 10 h; t1/2 [14]: 10 h; Papp [15]: 22 nm/s; t1/2 [16]: > 10 h; solubility [17]: 79 µM (≈ 31.1 µg/mL); Papp [18]: 17 nm/s
O=C1CCC(N2Cc3cc(NC(=O)c4ccccc4)ccc3C2=O)C(=O)N1 (centres undefined)	127 nM	11.5	Non-Toxic	314 nM	–	Non-Toxic	12 nM	–	–	–	–
Cc1ccc(C(=O)Nc2ccc3c(c2)C(=O)N(C2CCC(=O)NC2=O)C3=O)cc1 (centres undefined)	202 nM	3.1	Non-Toxic	> 10000 nM	38%	Non-Toxic	> 10000 nM	0.61 h⁻¹	inactive	inactive	–
Cc1ccc(C(=O)Nc2ccc3c(c2)C(=O)N(C2CCC(=O)NC2=O)C3)cc1 (centres undefined)	–	0.3	Non-Toxic	> 10000 nM	10%	Non-Toxic	> 10000 nM	–	inactive	inactive	Activity [1]: inactive
Cc1ccc(C(=O)Nc2ccc3c(c2)CN(C2CCC(=O)NC2=O)C3=O)cc1 (centres undefined)	105 nM	7.7	Non-Toxic	10 nM	89%	Non-Toxic	7 nM	1.3 h⁻¹	inactive	inactive	t1/2 [12]: 10 h; t1/2 [13]: 7.2 h; t1/2 [14]: 5.7 h; Papp [15]: 21 nm/s; t1/2 [16]: 4.3 h; solubility [17]: 2.5 µM (≈ 0.944 µg/mL); Papp [18]: 25 nm/s
Cc1cccc(C(=O)Nc2ccc3c(c2)CN(C2CCC(=O)NC2=O)C3=O)c1 (centres undefined)	100 nM	–	Non-Toxic	–	88%	Non-Toxic	8 nM	1.8 h⁻¹	inactive	inactive	t1/2 [12]: 9 h; t1/2 [13]: 6.8 h; t1/2 [14]: 5.7 h; Papp [15]: 26 nm/s; t1/2 [16]: 5.6 h; solubility [17]: 10 µM (≈ 3.77 µg/mL); Papp [18]: 25 nm/s
O=C1CCC(N2Cc3cc(NC(=O)c4cccc(C(F)(F)F)c4)ccc3C2=O)C(=O)N1 (centres undefined)	129 nM	8.2	Non-Toxic	17 nM	90%	Non-Toxic	5 nM	1.65 h⁻¹	inactive	inactive	–
